Converted amounts (≈) assume the structure as drawn. “And” between values parts separate entries of the source, which are not always exact repeats. Equal values may be shown once. Each block holds one molecule with its values, some of them ahead of it.
What was measured:
[1] = Ionization constants by potentiometric titration; format: physicochemical; conditions: aqueous solution (DMSO stock diluted 1:10 with water), basic pKa (B), mean ± SD, n = 3 titrations, read-out: Measured pKa
Description: The autotitrator was controlled by Tiamo software (Version 1.3). pH measurements were conducted using a Metrohm LL Micro glass electrode which was calibrated on the day of use with calibration standards at pH 2, 4, 7 and 10. All reagents were standardized (directly or indirectly) against potassium hydrogen phthalate (Sigma-Aldrich, A.C.S. Acidimetric Standard). Titrant solutions were protected from carbon dioxide absorption by flushing with nitrogen before sealing or by the incorporation of a drying tube filled with self-indicating soda lime into the titration reaction vessel set-up.
Aliquots were introduced directly into the titration vessel and diluted 1:10 with water (typical final compound concentration of 0.5 mM).

[2] = Octanol/pH 7.4 buffer partition coefficient, shake flask; conditions: pH 7.4
Description: Partition coefficients between octanol and pH 7.4 buffer were measured using a shake flask method. A stock solution of test compound in octanol was prepared at a concentration between 3 and 30 mg/mL based on the expected partition coefficient value. This stock solution was then diluted 3- and 10-fold with octanol and used to prepare the octanol phase for the partitioning experiments. Two different dilutions were used to confirm that there were no saturation effects. Phosphate buffered saline was prepared by combining 67 mM disodium hydrogen orthophosphate and sodium dihydrogen orthophosphate (both prepared in 43 mM NaCl) to a final pH of 7.4.
Partitioning experiments were conducted by mixing equal volumes of the octanol (containing test compound) and aqueous phases and placing on a vibrating plate mixer in an incubator at 37 °C. […] An aliquot of the aqueous phase was carefully removed and centrifuged again to ensure no contamination from the octanol phase before sampling in duplicate and diluting with aqueous methanol for analysis. Diluted samples were analysed by LC–MS along with calibration standards (Additional file 1: Table S2) and partition coefficients were calculated from the ratio of the mean octanol to buffer concentration after accounting for the dilution factors. The partitioning results for the two time points were used to confirm that the partitioning experiment had reached equilibrium.

[3] = Plasma protein binding via ultracentrifugation (UC); format: in vitro ADME, human; conditions: human, neat pooled plasma, pH 7.4; ultracentrifugation, neat plasma; read-out: Fraction unbound, human plasma
Description: (§1) Pooled human plasma (n = 3–4 donors) was obtained by centrifugation of blood (collected by the Australian Red Cross Blood Service, Melbourne, Australia or the Volunteer Blood Donor Registry, Clinical Translation Centre, Walter & Eliza Hall Institute of Medical Research, Parkville, Australia), or sourcing pooled plasma directly from commercial sources (Innovative Research Inc, MI) and stored frozen at − 80 °C.
(§2) An ultracentrifugation method adapted from a previous publication was initially used to assess plasma protein binding and binding in the other media. […] Additional ultracentrifuge tubes containing spiked matrix were maintained at 37 °C, 5% or 10% CO2 or normal atmosphere conditions, with aliquots being taken within 0.5 h of the start and at the end of ultracentrifugation to serve as controls for the assessment of stability and to obtain a measure of the total concentration (Ctotal). Following ultracentrifugation, the pH was checked and an aliquot of protein-free supernate was taken from each ultracentrifuge tube for determination of the unbound concentration (Cunbound).
(§3) Total matrix and protein free samples were analysed using a matrix matching approach whereby each sample was mixed in a 1:1 ratio with the opposite blank medium (i.e. blank total matrix or blank protein free buffer). For example, plasma samples were mixed with blank pH 7.4 buffer whereas plasma supernatant samples were mixed with blank plasma. Each of the sample sets were then assayed against a common calibration curve prepared in a 1:1 mixture of total matrix and protein free pH 7.4 buffer. […] The standard deviation for fu was calculated using the propagation of errors approach as described previously. The potential for compound degradation was assessed by comparing the average value for Ctotal at the start and end of the experiment.

[4] = Plasma protein binding via rapid equilibrium dialysis (RED), 10% plasma; format: in vitro ADME, human; conditions: human, 10% pooled plasma (diluted 1:10), pH 7.4, RED, 10% plasma corrected for dilution, 6 h dialysis
Description: as §1
Plasma was diluted 1:10 with pH 7.4 phosphate buffer (prepared by mixing 0.1 M sodium dihydrogen phosphate and 0.1 M disodium hydrogen phosphate (both containing 0.04 M NaCl) to pH 7.4) and spiked with compound to achieve a total measured concentration of ~ 1000–3000 ng/mL. Diluted plasma was vortex mixed briefly and aliquots (n = 3–4) were transferred to RED (Thermo Fisher Scientific, Waltham, MA) units that were placed at 37 °C under ambient atmosphere on a plate shaker. […] At the end of the dialysis period, samples were removed from both the donor and dialysate chambers of the RED units. […] Fraction unbound values were calculated for each individual RED unit and the mean and SD calculated for n = 3–4 replicates.
Briefly, the RED device was exposed for two 30 min periods and one overnight period to fresh solutions of compound prepared in pH 7.4 buffer at approximately 10% of the total dialysis concentration. Following the preincubations, solutions were removed from the RED device and discarded. […] Samples were removed and analysed as described above.
For binding assessments using 10% plasma, the unbound fraction (fu) in neat plasma was calculated using the average values for Ctotal and Cunbound and Eq.

[5] = biological target: T1, Albumax medium (lipid rich bovine serum albumin) (Bos taurus, UniProt P02769); assay: Binding in Albumax medium via ultracentrifugation; format: in vitro ADME; conditions: bovine, Albumax medium, pH 7.4
T1 construct: purchased Gibco, Thermo Fisher Scientific
Description: as §2, §3

[6] = Binding to human liver microsomes via ultracentrifugation; format: in vitro ADME; conditions: human, liver microsomes, pH 7.4, 0.4 mg/mL protein, read-out: Fraction unbound, HLM
Description: A suspension of human liver microsomes (HLM, XenoTech LLC, Lenexa, KS, USA) was prepared in 0.1 M phosphate buffer (pH 7.4) at a protein concentration of 0.4 mg/mL immediately prior to the experiment.
as §2, §3

in vitro = conditions: human, microsomes, pH 7.4, HLM CLint
Description: (§4) The metabolic stability assay was adapted from a previously published method. […] Reactions were quenched at 2, 5, 15, 30 and 60 min by the addition of acetonitrile containing 150 ng/mL diazepam as internal standard. Control samples (containing no cofactor) were included (quenched at 2, 30 and 60 min) to monitor degradation in the absence of cofactor. Concentrations were determined by LC–MS (Additional file 1: Table S2) by comparison to the response for a single point calibration standard prepared in quenched microsomal matrix.
(§5) Test compound concentration versus time data were fit using an exponential decay function to determine the first-order rate constant for substrate depletion. Where deviation from first-order kinetics was evident, only the initial linear portion of the logarithmic profile was utilized to determine the initial degradation rate constant (k, min^−1). Each substrate depletion rate constant was then used to calculate the in vitro intrinsic clearance value (CLint, in vitro, µL/min/mg protein) using Eq.
(§6) Unbound in vitro CLint values were obtained by dividing the measured CLint by the measured fu in microsomes.

human liver microsomes = assay: in vitro; conditions: human, 1 µM, pH 7.4
Description: as §4, §5, §6

CYP3A4 = CYP3A4 (Homo sapiens, UniProt P08684); assay: Cytochrome P450 inhibition in human liver microsomes; conditions: highest concentration tested 20 µM
Description: The CYP inhibition assay was based on a previous publication with minor modifications. The method uses human liver microsomes and a substrate-specific interaction approach which relies on the formation of a metabolite that is mediated by a specific CYP isoform. The specific CYP-mediated metabolic pathways, substrates, substrate Km values, positive control inhibitors and specific incubation conditions are shown in Additional file 1: Table S4. […] Samples were quenched by the addition of ice-cold acetonitrile containing diazepam as the analytical internal standard. Concentrations of the substrate-specific metabolites in quenched samples were determined by LC–MS (Additional file 1: Table S5) relative to calibration standards prepared in quenched microsomal matrix.
The inhibitory effect of each test compound and positive control inhibitor was based on the reduction in the formation of the specific CYP-mediated metabolite (represented as percent inhibition of enzyme activity) relative to metabolite formation in the absence of inhibitor (i.e. control for maximal enzyme activity). […] The Km was determined under the same incubation conditions by measuring the rate of metabolite formation (pmol/min/mg protein) as a function of substrate concentration (Additional file 1: Table S4).

Caco-2 cell monolayers = conditions: cited from earlier work
human plasma = conditions: methods UF, ED, EP or not described per compound, ref [6]–[22] of Additional file 1; cited from earlier work
[7] = Solubility in biorelevant media
Description: Solubility of each active pharmaceutical ingredient was evaluated at 37 °C in pH 7.4 phosphate buffered saline (prepared as described for the partitioning experiments), fasted (FaSSIF-V2) and fed (FeSSIF-V2) state simulated intestinal fluids and fasted state simulated gastric fluid (FaSSGF) as described by Jantratid et al.. […] Samples were vortexed and placed in a 37 °C incubator on an orbital mixer (IKA® VXR basic Vibrax® orbital mixer) set at 600 rpm. Sampling times were 1 h for FaSSGF or 5–6 h for FaSSIF-V2, FeSSIF-V2, and PBS. These times were used to reflect the maximal likely residence times within the stomach and small intestine, respectively. Sampling was carried out by centrifuging each sample at 10,000 rpm for 3 min, transferring 300 µL aliquots into fresh Eppendorf tubes and centrifuging these tubes again at 10,000 rpm for 3 min. Triplicate aliquots of the supernatant were then removed and diluted 1:2 in 50% aqueous methanol and then again in 50% aqueous acetonitrile to be within the analytical concentration range. Samples were analysed by LC–MS along with calibration standards (Additional file 1: Table S2).

[8] = Bidirectional permeability across Caco-2 cell monolayers; conditions: human
Description: Bidirectional permeability was assessed across Caco-2 cell monolayers as described previously. Briefly, permeability experiments were performed using either aqueous transport buffer (pH 7.4 Hanks balanced salt solution containing 20 mM HEPES) or human plasma (Australian Red Cross Blood Service) in both the apical and basolateral chambers. […] The final DMSO concentration in the donor solution was 0.1% v/v.
Samples from the donor chamber were taken at the start and end of the experiment. […] Donor and acceptor samples were stored frozen at − 80 °C until analysis by LC–MS (Additional file 1: Table S2) with sample preparation as described previously. The mass balance and apparent permeability coefficient (Papp) were calculated as previously described.
Where human plasma was used as the transport medium, Papp values were calculated as shown above, with correction for the fraction unbound (fu) in the donor solution Cdonorinitial×fu with fu determined at a similar concentration to that used in the transport experiment. The apparent flux of lucifer yellow was based on an endpoint measurement assuming no lag time. The efflux ratio was calculated as the ratio of the mean B–A to A–B Papp values.

[9] = Solubility limited absorbable dose (SLAD) calculation with predicted human jejunal Peff
Source text: Predicted Peff values were obtained from a calibration plot of literature Peff values vs measured Caco-2 Papp using either buffer or plasma as the transport medium (see Results section).

[10] = human; cited from earlier work
[11] = matrix: human plasma, corrected for fu

Chain of CYP3A4 (P08684 whole entry, canonical isoform): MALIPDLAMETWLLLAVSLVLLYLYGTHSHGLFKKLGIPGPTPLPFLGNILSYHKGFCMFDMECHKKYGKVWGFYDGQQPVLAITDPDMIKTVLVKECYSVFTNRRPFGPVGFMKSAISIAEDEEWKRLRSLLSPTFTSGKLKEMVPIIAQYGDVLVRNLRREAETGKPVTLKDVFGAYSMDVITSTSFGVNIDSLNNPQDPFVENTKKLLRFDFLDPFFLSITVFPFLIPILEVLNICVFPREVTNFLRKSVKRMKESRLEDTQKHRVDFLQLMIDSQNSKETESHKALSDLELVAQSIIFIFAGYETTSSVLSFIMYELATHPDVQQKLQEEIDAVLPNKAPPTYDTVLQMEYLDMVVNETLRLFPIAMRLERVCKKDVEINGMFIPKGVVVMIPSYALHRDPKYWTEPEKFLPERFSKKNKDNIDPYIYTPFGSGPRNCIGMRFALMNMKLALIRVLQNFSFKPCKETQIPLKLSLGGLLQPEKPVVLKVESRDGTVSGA
T1 sequence (P02769 25-607): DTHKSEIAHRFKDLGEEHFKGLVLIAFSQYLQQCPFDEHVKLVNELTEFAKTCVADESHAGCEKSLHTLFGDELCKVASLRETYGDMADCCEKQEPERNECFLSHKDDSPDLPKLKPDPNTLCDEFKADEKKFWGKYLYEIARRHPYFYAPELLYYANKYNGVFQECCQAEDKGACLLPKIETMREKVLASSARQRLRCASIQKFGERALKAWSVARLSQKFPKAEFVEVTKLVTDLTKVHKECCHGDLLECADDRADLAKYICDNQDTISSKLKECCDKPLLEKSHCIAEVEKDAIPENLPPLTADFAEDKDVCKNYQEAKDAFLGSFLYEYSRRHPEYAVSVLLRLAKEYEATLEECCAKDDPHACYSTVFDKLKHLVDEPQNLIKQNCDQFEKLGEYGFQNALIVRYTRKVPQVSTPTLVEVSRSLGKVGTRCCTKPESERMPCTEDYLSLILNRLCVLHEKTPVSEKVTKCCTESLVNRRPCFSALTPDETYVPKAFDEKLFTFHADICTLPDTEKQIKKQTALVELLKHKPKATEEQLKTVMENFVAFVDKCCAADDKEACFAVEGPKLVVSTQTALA

- pKa [1]: 7 ± 0.02
- logD ([2]; octanol/pH 7.4 buffer): 2.95
- fraction unbound at […] [3]: 0.089 ± 0.008
- fraction unbound at 6 h [4]: 0.086
- fraction unbound at […], 500 ng/mL [5]: 0.67 ± 0.033
- fraction unbound at […] [6]: 0.91 ± 0.094
- microsomal CLint at 1 µM (in vitro): 308 µL/min/mg
- Unbound CLint (human liver microsomes): 339 µL/min/mg
- IC50 (CYP3A4; CYP3A4 (midaz) IC50, human liver microsomes, CYP3A4 (midaz)): > 20 µM
- IC50 (CYP3A4; CYP3A4 (test) IC50, human liver microsomes, CYP3A4 (test)): > 20 µM
SMILES: CCN(CC)Cc1cc(Nc2ccnc3cc(Cl)ccc23)ccc1O [Amodiaquine]
- Literature ER (Caco-2 cell monolayers; Caco-2, ref [33], [35] of Additional file 1): 1.3
- Literature Papp (Caco-2 cell monolayers; Caco-2 A-B, ref [33]–[35] of Additional file 1): 16.0 ± 1.1 10-6 cm/sec
- A–B Papp (Caco-2 cell monolayers; [11]): 90 ± 8.3 10^−6 cm/s
- B–A Papp (Caco-2 cell monolayers; [11]): 63 ± 9.6 10^−6 cm/s
- Literature fu (human plasma): < 0.1

SMILES: c1cc([C@H]2CC[C@]3(CC2)OO[C@]2(O3)C3CC4CC(C3)CC2C4)ccc1OCCN1CCOCC1 [OZ439]
- logD ([2]; octanol/pH 7.4 phosphate buffered saline): > 5
- FaSSGF solubility ([7]; FaSSGF): 79 µg/mL
- solubility at 1 h ([7]; FaSSGF, 37 °C, fassgf or other biorelevant, thermodynamic from solid): 79 µg/mL and 168 µM
- FaSSIF solubility ([7]; FaSSIF): 40.6 µg/mL
- solubility ([7]; FaSSIF-V2, 37 °C, fassif, thermodynamic from solid): 40.6 µg/mL and 87 µM
- solubility ([7]; FeSSIF-V2, 37 °C, fessif, thermodynamic from solid): 526 µg/mL and 1120 µM
- solubility ([7]; phosphate buffered saline pH 7.4, 37 °C, pH 7.4, aqueous buffer, thermodynamic from solid): 0.085 µg/mL and 0.181 µM
- Papp B→A ([8]; Caco-2): > 300 ×10⁻⁶ cm/s
- Papp A→B ([8]; Caco-2, A–B Papp, matrix: human plasma, corrected for fu): > 300 ×10⁻⁶ cm/s
- solubility ([9]; FaSSIF): 40.6 µg/mL (≈ 86.5 µM)
- An (absorption number) ([9]; Peff × tres/R, minimum 1): 13
- SLAD ([9]; Ssi × V (500 mL) × Mp): 270 mg
- Predicted human Peff ([9]; from Caco-2 Papp via calibration plot): 11 10^−4 cm/s
- Food effect [10]: yes
- V/F [10]: 1570 L

Reference: publication PMC6941357, “An in vitro toolbox to accelerate anti-malarial drug discovery and development” (Malaria Journal, 2020)
